Assay results published in PubChem BioAssay AID1417 (Emory University Molecular Libraries Screening Center, 2008).

What follows are molecules tested against Induced myeloid leukemia cell differentiation protein Mcl-1 (Homo sapiens) (UniProt Q07820) (assay: Mcl-1 Noxa peptide disruption concentration-response – biochemical, TR-FRET, dose response (AID 1417)). Settings: Mcl-1/Noxa peptide interaction, cell-free TR-FRET (terbium/rhodamine), 2 h; measured here: absolute IC50.
Chain of Induced myeloid leukemia cell differentiation protein Mcl-1 (Homo sapiens) (Q07820 whole entry, looked up): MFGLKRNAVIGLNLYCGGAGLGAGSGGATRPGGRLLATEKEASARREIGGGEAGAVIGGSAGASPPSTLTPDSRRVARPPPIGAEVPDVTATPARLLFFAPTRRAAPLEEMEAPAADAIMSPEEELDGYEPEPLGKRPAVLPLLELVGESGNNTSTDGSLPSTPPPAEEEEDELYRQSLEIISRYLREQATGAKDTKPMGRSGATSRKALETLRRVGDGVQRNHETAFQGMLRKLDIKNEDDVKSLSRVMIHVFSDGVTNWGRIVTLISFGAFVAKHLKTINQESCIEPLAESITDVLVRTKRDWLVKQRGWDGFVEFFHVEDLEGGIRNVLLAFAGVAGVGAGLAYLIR

SMILES	IC50 [µM]
CCOC(=O)c1c(CSc2ccc(C)cc2)n(C)c2cc(Br)c(O)c(CN(C)C)c12	3.33
CSC1=N/C(=C\c2ccccc2F)C(=O)S1	> 54
Cc1ccc(C(C)C)c(OCc2ccc(C(=O)N/N=C/c3ccc(O)cc3O)cc2)c1	13.3
CC(C)C(C(=O)O)N1C(=O)/C(=C/C=C/c2ccco2)SC1=S (stereo not drawn)	< 0.4
COC(=O)Nc1ccc(S(=O)(=O)NCc2ccccn2)cc1	> 54
COCCN=c1scc(-c2ccco2)n1/N=C/c1ccc(O)c(O)c1O	< 0.4
CC(C(=O)NC1CCCC1)N(Cc1ccco1)C(=O)c1snc(C(=O)NC2CCCC2)c1N (stereo not drawn)	> 54
N#CC1=C(N)N(c2ccc(F)cc2)C2=C(C1c1ccc(O)cc1)S(=O)(=O)CC2 (stereo not drawn)	3.4
O=Cc1[nH]c2ccccc2c1N(C(=O)CCl)c1ccc([N+](=O)[O-])cc1	> 54
CC1=NN(C(N)=S)C(=O)C1N=Nc1ccc(O)cc1 (stereo not drawn)	11.2
CN=c1scc(C)n1/N=C/c1ccc(O)c(O)c1O	1.76
CN(C)c1ccc(NC(=O)c2ccc([N+](=O)[O-])cc2Cl)cc1	> 54
CCc1ccc(S(=O)(=O)/N=C2\C=CC(=O)c3ccccc32)cc1	< 0.4
CCCc1ccc(/C=C2\C(=O)c3ccccc3C(O)=C2C(=O)OCC)cc1	> 54
CCOc1ccccc1NC(=O)/C=C/C(N)=O	> 54
COC1=C/C(=C/c2c(N)n3nc(-c4ccc(C)cc4)sc3nc2=O)C=CC1=O	2.82
CC(C)c1ccc(Nc2nnc(SCC(=O)c3nnc(-c4ccccc4)o3)s2)cc1	1.92
CCN(CC)c1ccc(NC2=C(Cl)C(=O)c3ccccc3C2=O)cc1	< 0.4
COc1ccc(N2C(=O)C3CCCN3C2=O)cc1 (stereo not drawn)	> 54

SMILES	IC50 [µM]
Cc1cccc(OCCCC(=O)Nc2ccc(N(C)C)cc2)c1	1.8
CSc1nnc(-c2ccco2)c(-c2ccco2)n1	13.2
COc1ccccc1C1NC=C([N+](=O)[O-])C=C1[N+](=O)[O-] (stereo not drawn)	> 54
COc1ccc(S(=O)(=O)Nc2cc(Sc3ncn[nH]3)c(O)c3ccccc23)cc1	< 0.4
CCOc1ccc(-c2ccc(/C=C3/C(=N)N4C=CSC4=NC3=O)o2)c([N+](=O)[O-])c1	1.58
COc1cc(C(c2nnnn2C2CCCC2)N2CCc3ccccc3C2)ccc1O (stereo not drawn)	< 0.4
COc1ccc(N2CCN(C(=O)c3ccc(CSc4ccccc4)cc3)CC2)cc1	> 54
Cc1ccc(S(=O)(=O)C(CCC(=O)N2CCOCC2)S(=O)(=O)c2ccc(C)cc2)cc1	> 54
CC1(c2ccccc2)CC(C)(C)N2C(=O)/C(=C3\SC(=S)NC3=O)c3cccc1c32 (stereo not drawn)	< 0.4
COC(=O)c1ccc(CSc2nc(-c3ccccc3)cs2)o1	> 54
CS(=O)(=O)c1ccc(C(=O)NCCN2C(=O)S/C(=C\c3cccnc3)C2=O)cc1[N+](=O)[O-]	3.15
COc1cccc(C(=O)Nc2cc(Cl)c(O)c(Cl)c2)c1	> 54
CC(C)c1ccc(S(=O)(=O)/N=C2/C=CC(=O)c3ccccc32)cc1	< 0.4
C=C(C)C(=O)Nc1cccc(C2=NOC3(C2)C[C@@H](C(N)=O)N(C(=O)C(=C)C)C3)c1 (stereo partly drawn)	> 54
Nc1cc2c(cc1[N+](=O)[O-])OCO2	6.98
Cc1ccc(NS(=O)(=O)c2cc([N+](=O)[O-])ccc2NNC(=S)Nc2cccc(Cl)c2)c(C)c1	> 54
COc1ccc(Nc2cc(C)c3c(O)cccc3n2)cc1	7.12
Oc1ccc(N2CCN(c3ncnc4sc(-c5ccccc5)cc34)CC2)cc1	1.15

The remaining lines, values ahead:

IC50 [µM]	SMILES
4.1	CSCc1nc2sc(C(=O)Nc3nc(C)cs3)c(C)c2c(=O)[nH]1
7.51	O=C(O)c1ccccc1N/N=C/c1cc(Br)cc(Br)c1O
6.52	O=C(/C=C/c1ccccc1)c1ccc(NC2=NCCCS2)cc1
< 0.4	CCn1c(C)nc2cc(C(=O)N/N=C/c3ccc(O)c(O)c3O)ccc21
< 0.4	COc1ccc(N2CCC(CNS(=O)(=O)c3cccc(C(F)(F)F)c3)C2)cc1 (stereo not drawn)
4.62	Cc1ccc(N=C2NC(=O)/C(=C/C=C/c3ccco3)S2)cc1C
2.49	O=C(N/N=C/c1ccncc1)c1cc([N+](=O)[O-])cc([N+](=O)[O-])c1O
< 0.4	O=[N+]([O-])c1ccc2c(c1)N([O-])C1(CCCCC1)[N+]2=O
4.47	COc1ccc(CCNC(=O)c2ccc3nc(-c4ccco4)c(-c4ccco4)nc3c2)cc1OC
2.98	Cc1ccc(NC(=O)Cn2c(O)c(N=NC(=O)c3cc4ccccc4cc3O)c3ccccc32)cc1
1.32	CC(C)(C)c1cc(-c2csc(Nc3ccccc3)[n+]2Cc2ccc(C(=O)O)cc2)cc(C(C)(C)C)c1O
> 54	Cc1ccc(S(=O)(=O)Nc2ccc(N(C)C)cc2)cc1
2	O=C(NCCc1ccccc1)c1ccc2nc(-c3ccco3)c(-c3ccco3)nc2c1
4.17	Nc1nc2c(c(=O)[nH]1)C(c1cccc3ccccc13)C1=C(N2)c2ccccc2C1=O (stereo not drawn)
51.7	COc1ccc(N2CCC(CNC(=O)Nc3ccc(Cl)cc3)C2)cc1 (stereo not drawn)
1.93	O=C(OCC(=O)N1CCN(C(=O)c2ccco2)CC1)c1cc(-c2ccco2)nc2ccccc12
